According to patent publication US4062958A, “Method of treating anxiety and compositions therefor” (American Cyanamid Company, priority 1976, dated 1977):

Key:
[1] = tested on: conflict situation induced in rats (number of shocks received); test: Non-conditioned passive avoidance (conflict) procedure in rats; type: in vivo; conditions: Sprague-Dawley rats, positive = 9 or more shocks in 4 to 5 minutes; for ED50: Rattus norvegicus, oral, comparison drugs tested in exactly the same manner, read-out: median effective dose (ED50)
Procedure: Another test which has been used to assess anti-anxiety effects is a non-conditioned passive avoidance procedure described by J. R. Vogel, B. Beer and D. E. Clody, "A Simple and Reliable Conflict Procedure for Testing Anti-Anxiety Agents", Psychopharmacologia, Vol. 21, pp. 1-7 (1971). A conflict situation is induced in rats by a modification of this method. To groups of six naive Sprague-Dawley rats (200-220 grams), previously deprived of water for forty-eight hours and food for 24 hours, are administered graded oral doses of test compound suspended in 2% starch vehicle also containing 2 drops of polyethylene glycol and polysorbate 80, or vehicle alone (controls). At the time of peak effect each rat is placed in a plexiglass box fitted with a drinkometer circuit connected between the stainless steel grid floor and a stainless steel drinking tube inserted in a hole in one of the walls of the box. A stimulator supplying monophasic 60 cycle square wave pulses of 0.2 milliamperes peak intensity, a timer which allows alternate 5 second " shock free" and 5 second "shock available" periods during a 5 minute test period, an electromagnetic counter to count the number of shocks received by the rat during the shock available period and a delay of one half second between the successive shocks are incorporated into the drinkometer circuit. After the rat is placed in the box, it is allowed to explore and drink 10% dextrose solution supplied through the tap. After twenty seconds of continuous unpunished drinking, the timer and drinkometer circuits are activated and 5 second shock free and 5 second shock available periods alternate. The number of shocks received by the rat during a 5 minute test period is recorded. The percentage of rats that receive 9 or more shocks in 4 to 5 minutes at each dose level is used as positive response in calculation of the median effective dose (ED50). The estimated (ED50) for the compound 3-methyl-6-phenyl-1,2,4-triazolo[4,3-b]pyridazine after one hour from oral administration is 100 mg./kg.

[2] = tested on: clonic seizures caused by pentylenetetrazole; test: Protection against clonic seizures caused by pentylenetetrazole in rats; type: in vivo; conditions: Rattus norvegicus, oral, 2% starch vehicle, groups of at least 5, pentylenetetrazole 21 to 23 mg./kg. i.v. at estimated time of peak effect, read-out: Medium Effective Oral Dose ED50, protection against clonic seizures caused by pentylenetetrazole
Procedure: The anti-anxiety properties of the active compound of the present invention has been established in a test which indicates anxiolytic activity by the measure of protection from convulsions resulting from the administration of pentylenetetrazole. Graded dose levels of the compound of this invention were administered orally, in a 2% starch vehicle, to groups of at least 5 rats. At the estimated time of peak effect, the rats were treated intravenously with pentylenetetrazole at a dose of 21 to 23 mg./kg. of body weight. This dose is estimated to cause clonic seizures in 99% of unprotected rats. The effective dose (ED50) of the test compound for protection of 50% of the animals is calculated by the method of D. H. Finney in "Statistical Methods in Biological Assay", Second Edition, Hafner Publishing Co., New York, 1964, pp. 456-457. Representative results are given in the table which follows in comparison with chlordiazepoxide and meprobamate, which were tested in exactly the same manner. It has been reported [R. T. Hill and D. H. Tedeschi, "Animal Testing and Screening Procedures in Evaluating Psychotropic Drugs" in An Introduction of Psychopharmacology, Eds. R. R. Rech and K. E. Moore, Raven Press, New York, pp. 237-288 (1971)] that there is a high degree of correlation between antagonism of pentylenetetrazole seizures in rats and anti-anxiety effects in higher warm-blooded animals.

Structure (SMILES): Cc1nnc2ccc(-c3ccccc3)nn12 [3-methyl-6-phenyl-1,2,4-triazolo[4,3-b]pyridazine]
- estimated median effective dose (ED50) ([1]; one hour after oral administration): 100 mg/kg
- ED50 [2]: 3 mg/kg

Structure (SMILES): CNC1=Nc2ccc(Cl)cc2C(c2ccccc2)=[N+]([O-])C1 [Chlordiazepoxide]
- ED50 [1]: 9.6 mg/kg
- ED50 [2]: 2.5 mg/kg

Structure (SMILES): CCCC(C)(COC(N)=O)COC(N)=O [Meprobamate]
- ED50 [1]: 51.9 mg/kg
- ED50 [2]: 22 mg/kg
